From patent US20160168126A1, “CHEMICAL COMPOUNDS” (SYNGENTA LIMITED, priority 2013, published 2016)

System: a variety of test species
Test: Post-emergence herbicidal activity (glasshouse, sprayed 8 days after sowing, evaluated after 13 days); on Post-emergence herbicidal damage score, ABUTH (Abutilon theophrasti): key: 5=total damage to plant; 0=no damage to plant; on Post-emergence herbicidal damage score, AMARE (Amaranthus retroflexus): key: 5=total damage to plant; 0=no damage to plant
Assay type: in vivo
Settings: scale 0-5
Procedure, shortened: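 Seeds were sown in standard soil and cultivated for 8 days under controlled glasshouse conditions. Seedlings were then sprayed with an aqueous solution of the formulated compound containing 0.5% Tween 20. Injury was rated after a further 13 days, where 5 indicated total damage.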

SMILES | Post-emergence herbicidal damage score, ABUTH (Abutilon theophrasti) (1000 g/ha) | Post-emergence herbicidal damage score, ALOMY (Alopecurus myosuroides) (1000 g/ha) | Post-emergence herbicidal damage score, AMARE (Amaranthus retroflexus) (1000 g/ha) | Post-emergence herbicidal damage score, ECHCG (Echinochloa crus-galli) (1000 g/ha) | Post-emergence herbicidal damage score, SETFA (Setaria faberi) (1000 g/ha) | Post-emergence herbicidal damage score, ZEAMX (Zea mays) (1000 g/ha) | Post-emergence herbicidal damage score, ABUTH (Abutilon theophrasti) (250 g/ha) | Post-emergence herbicidal damage score, ALOMY (Alopecurus myosuroides) (250 g/ha) | Post-emergence herbicidal damage score, AMARE (Amaranthus retroflexus) (250 g/ha) | Post-emergence herbicidal damage score, ECHCG (Echinochloa crus-galli) (250 g/ha) | Post-emergence herbicidal damage score, SETFA (Setaria faberi) (250 g/ha) | Post-emergence herbicidal damage score, ZEAMX (Zea mays) (250 g/ha)
CCCC1=C(C)C(O)N(c2nn(C)c(C(C)(C)C)c2C#N)C1=O (stereo not drawn) [Compound D4] | 4 | 3 | 2 | 2 | 4 | 0 | – | – | – | – | – | –
Cn1nc(N2C(=O)C(CCl)=C(Cl)C2O)cc1C(C)(C)C (stereo not drawn) [Compound E1] | 4 | 4 | 1 | 5 | 5 | 0 | – | – | – | – | – | –
CCCC1=C(Cl)C(O)N(c2cc(C(C)(C)C#N)n(C)n2)C1=O (stereo not drawn) [Compound E2] | 4 | 4 | 5 | 5 | 4 | 1 | – | – | – | – | – | –
CC1=C(Cl)C(OC(=O)OCC(C)C)N(c2cc(C(C)(C)C)n(C)n2)C1=O (stereo not drawn) [Compound F1] | 5 | 4 | 5 | 5 | 5 | 3 | – | – | – | – | – | –
CC1=C(Cl)C(OC(=O)Oc2ccccc2)N(c2cc(C(C)(C)C)n(C)n2)C1=O (stereo not drawn) [Compound F2] | 5 | 4 | 5 | 5 | 5 | 1 | – | – | – | – | – | –
COC1=C(Cl)C(OC(C)=O)N(c2cc(C(C)(C)C)n(C)n2)C1=O (stereo not drawn) [Compound F3, [1-(5-tert-butyl-1-methyl-pyrazol-3-yl)-3-chloro-4-methoxy-5-oxo-2H-pyrrol-2-yl] acetate] | 5 | 5 | 5 | 5 | 5 | 3 | – | – | – | – | – | –
CC1=C(Cl)C(O)N(c2cc3n(n2)CCC3(C)C)C1=O (stereo not drawn) [Compound G2] | – | – | – | – | – | – | 5 | 5 | 5 | 5 | 5 | 4
CC1=C(Cl)C(O)N(c2cc3n(n2)CCCC3(C)C)C1=O (stereo not drawn) [Compound G4] | 5 | 5 | 5 | 5 | 5 | 2 | – | – | – | – | – | –
CC1=C(Cl)C(O)N(c2cc3n(n2)CCSC3(C)C)C1=O (stereo not drawn) [Compound G6] | 5 | 4 | 5 | 4 | 4 | 0 | – | – | – | – | – | –
CC1=C(Br)C(O)N(c2cc(C(C)(C)C)n(C)n2)C1=O (stereo not drawn) [Compound H1] | 5 | 4 | 5 | 5 | 3 | 1 | – | – | – | – | – | –
CC1=C(Br)C(O)N(c2cc(C(C)(C)C)[nH]n2)C1=O (stereo not drawn) [Compound H2] | 5 | 3 | 5 | 2 | 4 | 2 | – | – | – | – | – | –
CC(C)=CCc1cc(N2C(=O)C(C)=C(Br)C2O)nn1C (stereo not drawn) [Compound H3] | 0 | 0 | 0 | 0 | 0 | 0 | – | – | – | – | – | –
CC1=C(Br)C(O)N(c2cc(C(F)(F)F)n(C)n2)C1=O (stereo not drawn) [Compound H4] | 5 | 5 | 5 | 2 | 1 | 0 | – | – | – | – | – | –
CC1=C(Br)C(O)N(c2nn(C)c(C(C)(C)C)c2C#N)C1=O (stereo not drawn) [Compound H5] | 2 | 1 | 2 | 1 | 1 | 0 | – | – | – | – | – | –
CCC1=C(Br)C(O)N(c2nn(C)c(C(C)(C)C)c2C#N)C1=O (stereo not drawn) [Compound H6] | 1 | 2 | 2 | 1 | 2 | 0 | – | – | – | – | – | –
CC1=C(Br)C(O)N(c2cc3n(n2)CCC3(C)C)C1=O (stereo not drawn) [Compound H7] | 5 | 5 | 4 | 3 | 4 | 1 | – | – | – | – | – | –
CC1=C(Br)C(O)N(c2cc3n(n2)CCCC3(C)C)C1=O (stereo not drawn) [Compound H8] | 5 | 5 | 5 | 4 | 4 | 0 | – | – | – | – | – | –
CC1=C(Br)C(O)N(c2cc3n(n2)CCSC3(C)C)C1=O (stereo not drawn) [Compound H9] | 4 | 5 | 4 | 3 | 3 | 0 | – | – | – | – | – | –
CC1=C(Br)C(O)N(c2nn(C)c3c2CCC3(C)C)C1=O (stereo not drawn) [Compound H10] | 5 | 5 | 5 | 4 | 5 | 3 | – | – | – | – | – | –
COC1=C(C)C(=O)N(c2cc(C(C)(C)C)[nH]n2)C1O (stereo not drawn) [Compound I1] | – | – | – | – | – | – | 5 | 3 | 5 | 3 | 5 | 1
